Reference: publication PMC10246002 (bioRxiv, 2023)

Tested on: human tracheobronchial epithelial cells (hTECs)
Assay type: cell-based
Details: hTEC ALI culture with IL-13, resazurin assay

Which “number of viable cells” value does the source give for Cc1ccc(-n2nc(C(C)(C)C)cc2NC(=O)Nc2ccc(OCCN3CCOCC3)c3ccccc23)cc1 [NuP-43, BIRB-796] here?
The value was “no significant effects”.
